According to PMC11480411, “Mucosal sugars delineate pyrazine vs pyrazinone autoinducer signaling in Klebsiella oxytoca” (Nature Communications, 2024):

How the values were obtained:
Assay in all cases: PRESTO-Tango GPCR screen
Type in all cases: cell-based
Conditions in all cases: 100 µM
MC3R = target: T1, MC3R (Homo sapiens, UniProt P41968)
T1 construct: purchased PRESTO-Tango GPCR kit (Roth lab / Addgene)
Method in brief: (§1)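 β-Arrestin recruitment Tango format: HTLA cells, PEI transfection of receptor-Tango construct, 16-24 h; test compound 100 μM final, 20 h; Bright-Glo luminescence; RLU/PBS control RLU = fold activation. Dose-response curves run from 10^−4 M to 10^−15 M.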

GPR61 = target: T2, GPR61 (Homo sapiens, UniProt Q9BZJ8)
T2 construct: purchased PRESTO-Tango GPCR kit (Roth lab / Addgene)
Method in brief: as §1

MRGPRX3 = target: T3, MRGPRX3 (Homo sapiens, UniProt Q96LB0)
T3 construct: purchased PRESTO-Tango GPCR kit (Roth lab / Addgene)
Method in brief: as §1

ADRB3 = target: T4, ADRB3 (Homo sapiens, UniProt P13945)
T4 construct: purchased PRESTO-Tango GPCR kit (Roth lab / Addgene)
Method in brief: as §1

HCA1 = target: T5, HCA1 (Homo sapiens, UniProt Q9BXC0)
T5 construct: purchased PRESTO-Tango GPCR kit (Roth lab / Addgene)
Method in brief: as §1

GPR182 = target: T6, GPR182 (Homo sapiens, UniProt O15218)
T6 construct: purchased PRESTO-Tango GPCR kit (Roth lab / Addgene)
Method in brief: as §1

LPAR5 = target: T7, LPAR5 (Homo sapiens, UniProt Q9H1C0)
T7 construct: purchased PRESTO-Tango GPCR kit (Roth lab / Addgene)
Method in brief: as §1

HCTR2 = target: T8, HCTR2 (Homo sapiens, UniProt O43614)
T8 construct: purchased PRESTO-Tango GPCR kit (Roth lab / Addgene)
T8 sequence (O43614 whole entry): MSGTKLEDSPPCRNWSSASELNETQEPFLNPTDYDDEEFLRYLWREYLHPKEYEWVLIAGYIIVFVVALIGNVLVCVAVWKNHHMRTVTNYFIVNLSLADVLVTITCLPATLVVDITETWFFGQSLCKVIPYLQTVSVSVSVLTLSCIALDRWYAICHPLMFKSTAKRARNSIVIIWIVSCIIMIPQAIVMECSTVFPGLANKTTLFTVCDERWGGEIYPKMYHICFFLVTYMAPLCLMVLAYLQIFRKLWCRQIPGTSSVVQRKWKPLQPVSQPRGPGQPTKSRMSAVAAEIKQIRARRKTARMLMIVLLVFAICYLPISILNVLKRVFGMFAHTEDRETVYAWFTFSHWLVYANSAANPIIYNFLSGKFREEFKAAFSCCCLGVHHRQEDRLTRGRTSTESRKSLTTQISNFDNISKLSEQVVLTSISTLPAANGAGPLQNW
Method in brief: as §1

GPR101 = target: T9, GPR101 (Homo sapiens, UniProt Q96P66)
T9 construct: purchased PRESTO-Tango GPCR kit (Roth lab / Addgene)
Method in brief: as §1

GPR183 = target: T10, GPR183 (Homo sapiens, UniProt P32249)
T10 construct: purchased PRESTO-Tango GPCR kit (Roth lab / Addgene)
Method in brief: as §1

EDNRB = target: T11, EDNRB (Homo sapiens, UniProt P24530)
T11 construct: purchased PRESTO-Tango GPCR kit (Roth lab / Addgene)
T11 sequence (P24530 27-442): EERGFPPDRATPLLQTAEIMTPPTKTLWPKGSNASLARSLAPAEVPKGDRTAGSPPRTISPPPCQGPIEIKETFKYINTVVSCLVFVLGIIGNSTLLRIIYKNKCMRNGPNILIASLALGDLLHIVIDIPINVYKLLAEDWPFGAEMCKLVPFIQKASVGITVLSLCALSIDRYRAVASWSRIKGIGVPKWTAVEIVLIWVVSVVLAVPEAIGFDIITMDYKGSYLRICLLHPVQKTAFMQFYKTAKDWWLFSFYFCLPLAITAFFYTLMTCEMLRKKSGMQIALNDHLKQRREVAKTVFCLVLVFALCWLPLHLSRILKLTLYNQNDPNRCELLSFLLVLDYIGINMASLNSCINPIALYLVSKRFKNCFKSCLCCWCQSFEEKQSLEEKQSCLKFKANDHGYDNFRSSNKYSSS
Method in brief: as §1

GPR87 = target: T12, GPR87 (Homo sapiens, UniProt Q9BY21)
T12 construct: purchased PRESTO-Tango GPCR kit (Roth lab / Addgene)
Method in brief: as §1

GPR126 = target: T13, GPR126 (Homo sapiens, UniProt Q86SQ4)
T13 construct: purchased PRESTO-Tango GPCR kit (Roth lab / Addgene)
T13 sequence (Q86SQ4 38-1221): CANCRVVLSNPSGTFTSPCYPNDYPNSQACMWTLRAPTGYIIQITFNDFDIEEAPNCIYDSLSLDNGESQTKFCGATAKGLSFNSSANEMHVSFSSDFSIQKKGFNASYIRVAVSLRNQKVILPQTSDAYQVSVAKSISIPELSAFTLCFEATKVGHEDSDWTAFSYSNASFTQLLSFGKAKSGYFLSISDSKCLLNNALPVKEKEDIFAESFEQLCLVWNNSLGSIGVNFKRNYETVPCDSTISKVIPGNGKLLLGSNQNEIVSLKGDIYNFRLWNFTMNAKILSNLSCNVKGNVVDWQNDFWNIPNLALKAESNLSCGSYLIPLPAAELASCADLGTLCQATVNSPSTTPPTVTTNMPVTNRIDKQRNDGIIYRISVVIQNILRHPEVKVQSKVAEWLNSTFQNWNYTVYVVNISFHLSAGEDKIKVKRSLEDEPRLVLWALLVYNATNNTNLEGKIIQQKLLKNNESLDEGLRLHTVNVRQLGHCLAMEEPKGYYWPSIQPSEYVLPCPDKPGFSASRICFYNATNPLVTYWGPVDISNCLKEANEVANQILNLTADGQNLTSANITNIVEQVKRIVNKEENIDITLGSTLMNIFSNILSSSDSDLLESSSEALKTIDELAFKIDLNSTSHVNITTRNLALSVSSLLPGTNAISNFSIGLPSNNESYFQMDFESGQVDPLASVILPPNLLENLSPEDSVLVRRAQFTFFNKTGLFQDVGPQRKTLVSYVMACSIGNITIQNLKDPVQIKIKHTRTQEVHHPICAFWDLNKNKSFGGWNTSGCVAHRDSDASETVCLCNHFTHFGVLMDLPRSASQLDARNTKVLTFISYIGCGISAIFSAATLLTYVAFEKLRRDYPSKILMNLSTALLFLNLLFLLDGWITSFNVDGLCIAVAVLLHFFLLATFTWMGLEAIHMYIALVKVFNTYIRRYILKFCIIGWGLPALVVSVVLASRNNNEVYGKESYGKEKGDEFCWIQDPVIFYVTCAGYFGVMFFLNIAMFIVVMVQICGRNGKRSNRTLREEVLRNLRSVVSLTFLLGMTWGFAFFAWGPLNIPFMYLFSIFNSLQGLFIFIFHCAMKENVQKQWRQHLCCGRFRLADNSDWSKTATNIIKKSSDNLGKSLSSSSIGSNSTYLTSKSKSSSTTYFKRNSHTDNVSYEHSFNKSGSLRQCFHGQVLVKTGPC
Method in brief: as §1

GPR31 = target: T14, GPR31 (Homo sapiens, UniProt O00270)
T14 construct: purchased PRESTO-Tango GPCR kit (Roth lab / Addgene)
Method in brief: as §1

OPRD1 = target: T15, OPRD1 (Homo sapiens, UniProt P41143)
T15 construct: purchased PRESTO-Tango GPCR kit (Roth lab / Addgene)
Method in brief: as §1

SUCNR1 = target: T16, SUCNR1 (Homo sapiens, UniProt Q9BXA5)
T16 construct: purchased PRESTO-Tango GPCR kit (Roth lab / Addgene)
Method in brief: as §1

GPR153 = target: T17, GPR153 (Homo sapiens, UniProt Q6NV75)
T17 construct: purchased PRESTO-Tango GPCR kit (Roth lab / Addgene)
Method in brief: as §1

TACR2 = target: T18, TACR2 (Homo sapiens, UniProt P21452)
T18 construct: purchased PRESTO-Tango GPCR kit (Roth lab / Addgene)
Method in brief: as §1

GPR161 = target: T19, GPR161 (Homo sapiens, UniProt Q8N6U8)
T19 construct: purchased PRESTO-Tango GPCR kit (Roth lab / Addgene)
T19 sequence (Q8N6U8 whole entry): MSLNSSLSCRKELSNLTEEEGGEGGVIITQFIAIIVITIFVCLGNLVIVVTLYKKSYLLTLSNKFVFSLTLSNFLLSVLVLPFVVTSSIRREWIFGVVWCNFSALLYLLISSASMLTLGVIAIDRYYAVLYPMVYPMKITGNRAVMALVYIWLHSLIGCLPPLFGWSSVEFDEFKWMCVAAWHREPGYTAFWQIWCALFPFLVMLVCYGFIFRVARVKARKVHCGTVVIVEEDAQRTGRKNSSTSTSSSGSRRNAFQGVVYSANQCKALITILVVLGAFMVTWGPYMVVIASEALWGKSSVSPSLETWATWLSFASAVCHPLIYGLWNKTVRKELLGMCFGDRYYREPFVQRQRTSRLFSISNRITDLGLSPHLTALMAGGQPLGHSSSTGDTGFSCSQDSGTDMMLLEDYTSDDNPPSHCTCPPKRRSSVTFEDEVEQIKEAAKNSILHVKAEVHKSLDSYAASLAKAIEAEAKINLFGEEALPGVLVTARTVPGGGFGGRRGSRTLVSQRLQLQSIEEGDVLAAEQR
Method in brief: as §1

NMBR = target: T20, NMBR (Homo sapiens, UniProt P28336)
T20 construct: purchased PRESTO-Tango GPCR kit (Roth lab / Addgene)
Method in brief: as §1

GAL3 = target: T21, GAL3 (Homo sapiens, UniProt O60755)
T21 construct: purchased PRESTO-Tango GPCR kit (Roth lab / Addgene)
T21 sequence (O60755 whole entry): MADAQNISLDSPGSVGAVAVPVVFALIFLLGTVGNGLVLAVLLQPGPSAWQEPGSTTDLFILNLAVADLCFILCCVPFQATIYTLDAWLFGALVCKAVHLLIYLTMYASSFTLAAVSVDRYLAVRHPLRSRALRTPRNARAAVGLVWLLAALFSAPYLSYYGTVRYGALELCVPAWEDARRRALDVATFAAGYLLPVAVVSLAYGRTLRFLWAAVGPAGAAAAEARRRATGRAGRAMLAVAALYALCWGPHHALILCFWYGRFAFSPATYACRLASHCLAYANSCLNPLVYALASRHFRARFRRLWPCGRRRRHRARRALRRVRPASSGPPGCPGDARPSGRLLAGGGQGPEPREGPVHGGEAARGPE
Method in brief: as §1

PTAFR = target: T22, PTAFR (Homo sapiens, UniProt P25105)
T22 construct: purchased PRESTO-Tango GPCR kit (Roth lab / Addgene)
Method in brief: as §1

FPR1 = target: T23, FPR1 (Homo sapiens, UniProt P21462)
T23 construct: purchased PRESTO-Tango GPCR kit (Roth lab / Addgene)
Method in brief: as §1

HTR5 = target: T24, HTR5 (Homo sapiens, UniProt P47898)
T24 construct: purchased PRESTO-Tango GPCR kit (Roth lab / Addgene)
Method in brief: as §1

HCA2 = target: T25, HCA2 (Homo sapiens, UniProt Q8TDS4)
T25 construct: purchased PRESTO-Tango GPCR kit (Roth lab / Addgene)
Method in brief: as §1

NPY2R = target: T26, NPY2R (Homo sapiens, UniProt P49146)
T26 construct: purchased PRESTO-Tango GPCR kit (Roth lab / Addgene)
Method in brief: as §1

ADRA1B = target: T27, ADRA1B (Homo sapiens, UniProt P35368)
T27 construct: purchased PRESTO-Tango GPCR kit (Roth lab / Addgene)
Method in brief: as §1

LTB4R2B = target: T28, LTB4R2B (Homo sapiens, UniProt Q9NPC1)
T28 construct: purchased PRESTO-Tango GPCR kit (Roth lab / Addgene)
Method in brief: as §1

CXCR1 = target: T29, CXCR1 (Homo sapiens, UniProt P25024)
T29 construct: purchased PRESTO-Tango GPCR kit (Roth lab / Addgene)
Method in brief: as §1

GPR35 = target: T30, GPR35 (Homo sapiens, UniProt Q9HC97)
T30 construct: purchased PRESTO-Tango GPCR kit (Roth lab / Addgene)
Method in brief: as §1

NPY1R = target: T31, NPY1R (Homo sapiens, UniProt P25929)
T31 construct: purchased PRESTO-Tango GPCR kit (Roth lab / Addgene)
Method in brief: as §1

BB3 = target: T32, BB3 (Homo sapiens, UniProt P32247)
T32 construct: purchased PRESTO-Tango GPCR kit (Roth lab / Addgene)
Method in brief: as §1

GPR22 = target: T33, GPR22 (Homo sapiens, UniProt Q99680)
T33 construct: purchased PRESTO-Tango GPCR kit (Roth lab / Addgene)
Method in brief: as §1

ELTD1 = target: T34, ELTD1 (Homo sapiens, UniProt Q9HBW9)
T34 construct: purchased PRESTO-Tango GPCR kit (Roth lab / Addgene)
T34 sequence (Q9HBW9 20-690): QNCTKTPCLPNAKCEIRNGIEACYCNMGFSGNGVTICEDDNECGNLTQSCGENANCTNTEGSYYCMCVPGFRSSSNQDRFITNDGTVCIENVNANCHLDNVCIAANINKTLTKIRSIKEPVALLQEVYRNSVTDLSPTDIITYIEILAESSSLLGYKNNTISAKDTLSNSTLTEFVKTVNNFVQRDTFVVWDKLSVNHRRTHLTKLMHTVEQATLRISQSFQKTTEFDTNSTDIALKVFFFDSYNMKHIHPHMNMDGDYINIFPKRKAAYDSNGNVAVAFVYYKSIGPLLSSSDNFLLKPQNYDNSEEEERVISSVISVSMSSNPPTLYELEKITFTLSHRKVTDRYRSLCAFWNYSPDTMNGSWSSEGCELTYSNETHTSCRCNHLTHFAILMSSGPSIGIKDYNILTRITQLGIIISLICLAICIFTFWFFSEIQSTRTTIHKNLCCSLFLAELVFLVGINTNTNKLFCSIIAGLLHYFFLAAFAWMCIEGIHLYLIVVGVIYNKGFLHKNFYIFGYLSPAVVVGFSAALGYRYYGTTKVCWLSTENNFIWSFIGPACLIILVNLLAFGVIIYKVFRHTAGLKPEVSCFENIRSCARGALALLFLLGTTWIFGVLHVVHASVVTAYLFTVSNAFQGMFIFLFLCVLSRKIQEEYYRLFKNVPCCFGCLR
Method in brief: as §1

GPR158 = target: T35, GPR158 (Homo sapiens, UniProt Q5T848)
T35 construct: purchased PRESTO-Tango GPCR kit (Roth lab / Addgene)
T35 sequence (Q5T848 24-1215): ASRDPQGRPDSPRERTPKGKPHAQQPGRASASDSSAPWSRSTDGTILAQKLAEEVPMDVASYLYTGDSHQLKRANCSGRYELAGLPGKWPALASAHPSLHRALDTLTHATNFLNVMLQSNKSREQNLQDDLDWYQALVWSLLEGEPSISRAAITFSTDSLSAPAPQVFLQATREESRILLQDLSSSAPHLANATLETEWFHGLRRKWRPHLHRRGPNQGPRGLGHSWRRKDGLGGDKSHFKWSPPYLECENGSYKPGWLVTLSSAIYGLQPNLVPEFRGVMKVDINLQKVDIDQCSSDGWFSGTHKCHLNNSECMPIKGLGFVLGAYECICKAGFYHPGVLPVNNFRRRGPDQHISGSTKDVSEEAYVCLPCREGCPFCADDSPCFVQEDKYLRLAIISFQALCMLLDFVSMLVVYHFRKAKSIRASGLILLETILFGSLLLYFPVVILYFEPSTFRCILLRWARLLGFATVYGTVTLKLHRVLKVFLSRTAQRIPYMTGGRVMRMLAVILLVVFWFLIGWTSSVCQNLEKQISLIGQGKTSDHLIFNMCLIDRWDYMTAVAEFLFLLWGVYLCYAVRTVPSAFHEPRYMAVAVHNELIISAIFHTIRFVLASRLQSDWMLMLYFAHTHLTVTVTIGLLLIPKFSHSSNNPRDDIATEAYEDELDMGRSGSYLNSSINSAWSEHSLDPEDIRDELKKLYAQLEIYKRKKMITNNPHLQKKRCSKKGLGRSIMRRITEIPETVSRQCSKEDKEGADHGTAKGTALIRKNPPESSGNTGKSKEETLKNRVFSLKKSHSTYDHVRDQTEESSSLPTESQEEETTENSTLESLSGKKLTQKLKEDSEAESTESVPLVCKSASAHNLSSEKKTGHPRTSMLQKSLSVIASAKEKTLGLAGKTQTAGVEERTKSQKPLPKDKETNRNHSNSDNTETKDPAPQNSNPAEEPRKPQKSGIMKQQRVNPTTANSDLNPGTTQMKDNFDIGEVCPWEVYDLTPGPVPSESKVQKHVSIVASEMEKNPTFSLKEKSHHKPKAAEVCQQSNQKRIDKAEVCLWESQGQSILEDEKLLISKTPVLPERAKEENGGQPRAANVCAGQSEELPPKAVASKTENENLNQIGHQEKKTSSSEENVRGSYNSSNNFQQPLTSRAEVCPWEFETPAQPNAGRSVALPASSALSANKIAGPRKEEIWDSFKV
Method in brief: as §1

GPR39 = target: T36, GPR39 (Homo sapiens, UniProt O43194)
T36 construct: purchased PRESTO-Tango GPCR kit (Roth lab / Addgene)
Method in brief: as §1

SMILES | GPCR activation (heatmap value) (MC3R) | GPCR activation (heatmap value) (GPR61) | GPCR activation (heatmap value) (MRGPRX3) | GPCR activation (heatmap value) (ADRB3) | GPCR activation (heatmap value) (HCA1) | GPCR activation (heatmap value) (GPR182) | GPCR activation (heatmap value) (LPAR5) | GPCR activation (heatmap value) (HCTR2) | GPCR activation (heatmap value) (GPR101) | GPCR activation (heatmap value) (GPR183) | GPCR activation (heatmap value) (EDNRB) | GPCR activation (heatmap value) (GPR87) | GPCR activation (heatmap value) (GPR126) | GPCR activation (heatmap value) (GPR31) | GPCR activation (heatmap value) (OPRD1) | GPCR activation (heatmap value) (SUCNR1) | GPCR activation (heatmap value) (GPR153) | GPCR activation (heatmap value) (TACR2) | GPCR activation (heatmap value) (GPR161) | GPCR activation (heatmap value) (NMBR) | also measured
CC(C)Cc1ncc(CCCCNC(=N)N)[nH]c1=O [3-Homo] | -0.2762 | 1.164 | -1.005 | -1.912 | -0.6134 | -0.244 | 0.1689 | -1.63 | -0.2435 | -0.6232 | -0.6292 | -0.5192 | 0.0787 | 0.09636 | -0.6579 | -0.1091 | -0.4672 | 0.6939 | 0.03788 | 0.06446 | GPCR activation (heatmap value) (GAL3): 0.4523; GPCR activation (heatmap value) (PTAFR): -0.1375; GPCR activation (heatmap value) (FPR1): -1.272; GPCR activation (heatmap value) (HTR5): 0.4039; GPCR activation (heatmap value) (HCA2): 0.4377; GPCR activation (heatmap value) (NPY2R): 0.3401; GPCR activation (heatmap value) (ADRA1B): -0.4471; GPCR activation (heatmap value) (LTB4R2B): 0.02731; GPCR activation (heatmap value) (CXCR1): 0.5406; GPCR activation (heatmap value) (GPR35): 0.1027; GPCR activation (heatmap value) (NPY1R): -1.44; GPCR activation (heatmap value) (BB3): -0.2556; GPCR activation (heatmap value) (GPR22): -1.099; GPCR activation (heatmap value) (ELTD1): 0.08719; GPCR activation (heatmap value) (GPR158): -0.4311; GPCR activation (heatmap value) (GPR39): 0.5643
CC(C)Cc1ncc(CCCNC(=N)N)[nH]c1=O [compound 3] | 0.4161 | 0.4932 | -1.319 | 0.7966 | 0.05882 | -0.4224 | 0.04943 | -0.2618 | 0.4147 | -0.9955 | 0.7397 | -0.4548 | -0.3797 | 0.1606 | 1.451 | 0.1336 | 0.1913 | 0.2945 | 0.1774 | 0.762 | GPCR activation (heatmap value) (GAL3): 0.02852; GPCR activation (heatmap value) (PTAFR): -0.05027; GPCR activation (heatmap value) (FPR1): 0.7196; GPCR activation (heatmap value) (HTR5): -0.08015; GPCR activation (heatmap value) (HCA2): 0.2197; GPCR activation (heatmap value) (NPY2R): 0.1932; GPCR activation (heatmap value) (ADRA1B): 0.1702; GPCR activation (heatmap value) (LTB4R2B): -1.038; GPCR activation (heatmap value) (CXCR1): 0.1868; GPCR activation (heatmap value) (GPR35): -0.5823; GPCR activation (heatmap value) (NPY1R): -0.2056; GPCR activation (heatmap value) (BB3): 0.3176; GPCR activation (heatmap value) (GPR22): -1.5748; GPCR activation (heatmap value) (ELTD1): 0.3234; GPCR activation (heatmap value) (GPR158): -0.2474; GPCR activation (heatmap value) (GPR39): 0.8238
